Laboratory results reported in PubChem BioAssay AID256 (DTP/NCI, 2004).
“And” between values parts separate entries of the source, which are not always exact repeats. Equal values may be shown once. Inconclusive results and toxic doses are left out. Rule for the calls: active = survival T/C of 150% or more; inactive = T/C below 125% in these data.

Test system: CD2F1 mice, L1210 leukemia ip, survival T/C
Assay: NCI In Vivo Anticancer Drug Screen. Data for tumor model L1210 Leukemia (intraperitoneal) in CD2F1 (CDF1) mice
Conditions: higher = longer survival
Procedure, shortened: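 Transplantable tumor in mice; compound-treated vs vehicle-treated groups. Read-out = treated/control ratio of the measured endpoint.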

[1] = endpoint: mean survival time, dose: 25.0 mg/kg/injection, schedule: Q04DX003 (ip), vehicle: saline with Tween-80
[2] = endpoint: mean survival time, dose: 50.0 mg/kg/injection, schedule: Q04DX003 (ip), vehicle: saline with Tween-80
[3] = endpoint: mean survival time, dose: 100.0 mg/kg/injection, schedule: Q01DX009 (ip), vehicle: saline with Tween-80
[4] = endpoint: mean survival time, dose: 200.0 mg/kg/injection, schedule: Q01DX009 (ip), vehicle: saline with Tween-80
[5] = endpoint: mean survival time, dose: 400.0 mg/kg/injection, schedule: Q01DX009 (ip), vehicle: saline with Tween-80
[6] = endpoint: mean survival time, dose: 100.0 mg/kg/injection, schedule: Q04DX003 (ip), vehicle: saline with Tween-80
[7] = endpoint: mean survival time, dose: 200.0 mg/kg/injection, schedule: Q04DX003 (ip), vehicle: saline with Tween-80
[8] = endpoint: mean survival time, dose: 400.0 mg/kg/injection, schedule: Q04DX003 (ip), vehicle: saline with Tween-80
[9] = endpoint: mean survival time, dose: 12.5 mg/kg/injection, schedule: Q01DX009 (ip), vehicle: saline with Tween-80
[10] = endpoint: mean survival time, dose: 25.0 mg/kg/injection, schedule: Q01DX009 (ip), vehicle: saline with Tween-80
[11] = endpoint: mean survival time, dose: 50.0 mg/kg/injection, schedule: Q01DX009 (ip), vehicle: saline with Tween-80
[12] = endpoint: mean survival time, dose: 100.0 mg/kg/injection, schedule: Q04DX002 (ip), vehicle: saline with Tween-80

Measured: T/C

COc1cc[n+](CCc2c[nH]c3ccccc23)cc1
inactive: endpoint: mean survival time, dose: 12.5 mg/kg/injection, schedule: Q01DX009 (ip), vehicle: saline sonified 97 % of control | endpoint: mean survival time, dose: 12.5 mg/kg/injection, schedule: Q04DX003 (ip), vehicle: saline with Tween-80 97 % of control | endpoint: mean survival time, dose: 25.0 mg/kg/injection, schedule: Q01DX009 (ip), vehicle: saline sonified 98 % of control | [1] 101 % of control | endpoint: mean survival time, dose: 50.0 mg/kg/injection, schedule: Q01DX009 (ip), vehicle: saline sonified 100 % of control | [2] 104 % of control

O=C1NC(=O)C([N+](=O)[O-])=C(O)C1=O
inactive: endpoint: mean survival time, dose: 50.0 mg/kg/injection, schedule: Q01DX009 (ip), vehicle: saline 102 % of control | endpoint: mean survival time, dose: 100.0 mg/kg/injection, schedule: Q01DX009 (ip), vehicle: saline 93 % of control | endpoint: mean survival time, dose: 200.0 mg/kg/injection, schedule: Q01DX009 (ip), vehicle: saline 90 % of control

CCc1ncc(C(C)(O)c2ccc(C)cc2)n1Cc1ccccc1 (stereo not drawn)
inactive: [3] 92 % of control | [4] 90 % of control | [5] 97 % of control

CCOC(=O)c1csc(-c2csc(CCNC(=O)c3ccccc3)n2)n1
inactive: endpoint: mean survival time, dose: 100.0 mg/kg/injection, schedule: Q01DX001 (ip), vehicle: saline with Tween-80 97 % of control | [3] 102 % of control | endpoint: mean survival time, dose: 100.0 mg/kg/injection, schedule: Q04DX003 (ip), vehicle: saline 96 % of control | endpoint: mean survival time, dose: 200.0 mg/kg/injection, schedule: Q01DX001 (ip), vehicle: saline with Tween-80 98 % of control | [4] 100 % of control | endpoint: mean survival time, dose: 200.0 mg/kg/injection, schedule: Q04DX003 (ip), vehicle: saline 101 % of control | endpoint: mean survival time, dose: 400.0 mg/kg/injection, schedule: Q01DX001 (ip), vehicle: saline with Tween-80 101 % of control | [5] 96 % of control | endpoint: mean survival time, dose: 400.0 mg/kg/injection, schedule: Q04DX003 (ip), vehicle: saline 95 % of control

CC1CCN(Cc2c(COc3ccc(Cl)cc3)n(C)c3ccccc23)CC1
inactive: [6] 87 % of control | [7] 93 % of control | [8] 94 % of control

CSc1nc(Cl)c2cc(Cl)[nH]c2n1
inactive: endpoint: median survival time, dose: 1.5 mg/kg/injection, schedule: Q01DX009 (ip), vehicle: saline with Tween-80 104 % of control | endpoint: median survival time, dose: 3.0 mg/kg/injection, schedule: Q01DX009 (ip), vehicle: saline with Tween-80 107 % of control | endpoint: median survival time, dose: 6.0 mg/kg/injection, schedule: Q01DX009 (ip), vehicle: saline with Tween-80 110 % of control | endpoint: median survival time, dose: 50.0 mg/kg/injection, schedule: Q01DX005 (ip), vehicle: saline with Tween-80 100 % of control | endpoint: median survival time, dose: 100.0 mg/kg/injection, schedule: Q01DX005 (ip), vehicle: saline with Tween-80 101 % of control

O=NN(CCF)C(=O)NC1CCC(NC(=O)N(CCF)N=O)CC1 (stereo not drawn)
active: [9] 240 % of control | [10] 273 % of control and 289 % of control | [11] 234 % of control
inactive: endpoint: mean survival time, dose: 3.13 mg/kg/injection, schedule: Q01DX009 (ip), vehicle: saline with Tween-80 117 % of control

Nc1nc([Se]c2nc(N)nc3c2ncn3C2OC(CO)C(O)C2O)c2ncn(C3OC(CO)C(O)C3O)c2n1 (stereo not drawn)
active: endpoint: median survival time, dose: 36.0 mg/kg/injection, schedule: Q01DX005 (ip), vehicle: distilled water + Tween-80 156 % of control | endpoint: median survival time, dose: 60.0 mg/kg/injection, schedule: Q01DX005 (ip), vehicle: distilled water + Tween-80 162 % of control

CCCCC(Sc1nn(C2OC(COC(=O)c3ccccc3)C(OC(=O)c3ccccc3)C2OC(=O)c2ccccc2)c(=O)[nH]c1=O)C(=O)OCC (stereo not drawn)
inactive: endpoint: mean survival time, dose: 12.5 mg/kg/injection, schedule: Q01DX005 (ip), vehicle: distilled water + Tween-80 101 % of control | endpoint: mean survival time, dose: 25.0 mg/kg/injection, schedule: Q01DX005 (ip), vehicle: distilled water + Tween-80 95 % of control | endpoint: mean survival time, dose: 50.0 mg/kg/injection, schedule: Q01DX005 (ip), vehicle: distilled water + Tween-80 97 % of control | endpoint: mean survival time, dose: 100.0 mg/kg/injection, schedule: Q01DX005 (ip), vehicle: distilled water + Tween-80 95 % of control | endpoint: mean survival time, dose: 200.0 mg/kg/injection, schedule: Q01DX005 (ip), vehicle: distilled water + Tween-80 94 % of control

O=C1c2c(O)ccc(O)c2C(=O)c2c(NCCO)ccc(NCCO)c21
inactive: [3] 103 % of control | [4] 110 % of control | [5] 113 % of control

c1cc2c3c(c1)nc(CCCc1nc4cccc5c4n1CCC5)n3CCC2
inactive: [10] 103 % of control | [11] 96 % of control | [3] 94 % of control

CCOP1(=O)OCC(C(C)(C)C)CO1 (stereo not drawn)
inactive: endpoint: mean survival time, dose: 12.5 mg/kg/injection, schedule: Q04DX003 (ip), vehicle: Klucel (hydroxypropylcellulose) (HPC) 102 % of control | endpoint: mean survival time, dose: 25.0 mg/kg/injection, schedule: Q04DX003 (ip), vehicle: Klucel (hydroxypropylcellulose) (HPC) 102 % of control

Cc1ccc(C2CC3c4ccccc4C2C2CCCCN32)cc1 (stereo not drawn)
inactive: endpoint: mean survival time, dose: 1.56 mg/kg/injection, schedule: Q01DX009 (ip), vehicle: water 88 % of control and 86 % of control | endpoint: mean survival time, dose: 3.13 mg/kg/injection, schedule: Q01DX009 (ip), vehicle: water 86 % of control | endpoint: mean survival time, dose: 6.25 mg/kg/injection, schedule: Q01DX009 (ip), vehicle: water 88 % of control | endpoint: mean survival time, dose: 12.5 mg/kg/injection, schedule: Q01DX009 (ip), vehicle: water 88 % of control and 93 % of control | endpoint: mean survival time, dose: 25.0 mg/kg/injection, schedule: Q01DX009 (ip), vehicle: water 89 % of control and 102 % of control

Clc1ccccc1P(c1ccccc1)c1ccccc1
inactive: endpoint: mean survival time, dose: 25.0 mg/kg/injection, schedule: Q04DX002 (ip), vehicle: saline with Tween-80 100 % of control | endpoint: mean survival time, dose: 50.0 mg/kg/injection, schedule: Q04DX002 (ip), vehicle: saline with Tween-80 100 % of control | [12] 100 % of control

OC1C2CC3C1C3C2O (stereo not drawn)
inactive: [6] 94 % of control | [7] 97 % of control | [8] 105 % of control

Cc1nc(-c2ccccc2)[nH]c(=O)c1Cc1cc2c(cc1O)OCC2
inactive: endpoint: mean survival time, dose: 100.0 mg/kg/injection, schedule: Q01DX001 (ip), vehicle: saline 100 % of control | endpoint: mean survival time, dose: 200.0 mg/kg/injection, schedule: Q01DX001 (ip), vehicle: saline 101 % of control | endpoint: mean survival time, dose: 400.0 mg/kg/injection, schedule: Q01DX001 (ip), vehicle: saline 100 % of control

Cc1cn(CC(=O)c2cc3ccccc3[nH]2)c(=O)[nH]c1=O
inactive: [12] 93 % of control | endpoint: mean survival time, dose: 200.0 mg/kg/injection, schedule: Q04DX002 (ip), vehicle: saline with Tween-80 93 % of control | endpoint: mean survival time, dose: 400.0 mg/kg/injection, schedule: Q04DX002 (ip), vehicle: saline with Tween-80 101 % of control

O=[N+]([O-])c1cc(I)c(I)c(I)c1
inactive: [6] 98 % of control | [7] 104 % of control | [8] 98 % of control

COc1cccc2c1C(=N)c1c(O)c3c(c(O)c1C2=O)C[C@@](O)(C(C)=O)C[C@@H]3OC1CC(N)C(O)C(C)O1 (stereo partly drawn)
inactive: endpoint: mean survival time, dose: 0.5 mg/kg/injection, schedule: Q01DX009 (ip), vehicle: saline 121 % of control and 108 % of control | endpoint: mean survival time, dose: 1.0 mg/kg/injection, schedule: Q01DX009 (ip), vehicle: saline 124 % of control | endpoint: mean survival time, dose: 2.0 mg/kg/injection, schedule: Q01DX009 (ip), vehicle: saline 113 % of control and 122 % of control | endpoint: mean survival time, dose: 4.0 mg/kg/injection, schedule: Q01DX009 (ip), vehicle: saline 114 % of control and 119 % of control | endpoint: mean survival time, dose: 8.0 mg/kg/injection, schedule: Q01DX009 (ip), vehicle: saline 101 % of control

CCC(CC)C(O)C(C)C(C)O (stereo not drawn)
inactive: [3] 91 % of control | [4] 91 % of control | [5] 91 % of control

CC1=C(/C=C/C(C)=N/NC(N)=S)C(C)(C)CCC1
inactive: [9] 106 % of control | [10] 115 % of control | [1] 98 % of control | [2] 104 % of control

O=C1C(Cl)=C(Nc2nc3ccccc3s2)C(=O)c2ccccc21
inactive: endpoint: mean survival time, dose: 25.0 mg/kg/injection, schedule: Q01DX001 (ip), vehicle: Klucel (hydroxypropylcellulose) (HPC) 102 % of control | endpoint: mean survival time, dose: 50.0 mg/kg/injection, schedule: Q01DX001 (ip), vehicle: Klucel (hydroxypropylcellulose) (HPC) 96 % of control | endpoint: mean survival time, dose: 100.0 mg/kg/injection, schedule: Q01DX001 (ip), vehicle: Klucel (hydroxypropylcellulose) (HPC) 98 % of control
